Assay results reported in PMC7252619 (PLoS ONE, 2020).
“And” between values parts separate entries of the source, which are not always exact repeats. Identical values can stand only once. Like-named read-outs stand apart in the source and are kept apart here.

How the values were obtained:
Test in all cases: Kinase activity test (ReactionBiology), % enzyme activity relative to DMSO
Assay type in all cases: biochemical
[1] = biological target: T1, CK1d (Homo sapiens, UniProt P48730); details: for % Enzyme Activity (relative to DMSO controls), Data 1: replicate Data 1
T1 construct: purchased ReactionBiology

[2] = biological target: VEGFR2 (Homo sapiens, UniProt P35968); parameters: purchased ReactionBiology; details: for % Enzyme Activity (relative to DMSO controls), Data 1: replicate Data 1;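 for all read-outs here: VEGFR2 was one member of a ten-kinase screening panel testing marketed FDA-approved drugs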
[3] = biological target: T2, EPHB4 (Homo sapiens, UniProt P54760);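 note: EPHB4 was one of ten selected kinases in the screening panel, with enzyme activity expressed as a percentage of DMSO controls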
T2 construct: purchased ReactionBiology
T2 sequence (P54760 16-987): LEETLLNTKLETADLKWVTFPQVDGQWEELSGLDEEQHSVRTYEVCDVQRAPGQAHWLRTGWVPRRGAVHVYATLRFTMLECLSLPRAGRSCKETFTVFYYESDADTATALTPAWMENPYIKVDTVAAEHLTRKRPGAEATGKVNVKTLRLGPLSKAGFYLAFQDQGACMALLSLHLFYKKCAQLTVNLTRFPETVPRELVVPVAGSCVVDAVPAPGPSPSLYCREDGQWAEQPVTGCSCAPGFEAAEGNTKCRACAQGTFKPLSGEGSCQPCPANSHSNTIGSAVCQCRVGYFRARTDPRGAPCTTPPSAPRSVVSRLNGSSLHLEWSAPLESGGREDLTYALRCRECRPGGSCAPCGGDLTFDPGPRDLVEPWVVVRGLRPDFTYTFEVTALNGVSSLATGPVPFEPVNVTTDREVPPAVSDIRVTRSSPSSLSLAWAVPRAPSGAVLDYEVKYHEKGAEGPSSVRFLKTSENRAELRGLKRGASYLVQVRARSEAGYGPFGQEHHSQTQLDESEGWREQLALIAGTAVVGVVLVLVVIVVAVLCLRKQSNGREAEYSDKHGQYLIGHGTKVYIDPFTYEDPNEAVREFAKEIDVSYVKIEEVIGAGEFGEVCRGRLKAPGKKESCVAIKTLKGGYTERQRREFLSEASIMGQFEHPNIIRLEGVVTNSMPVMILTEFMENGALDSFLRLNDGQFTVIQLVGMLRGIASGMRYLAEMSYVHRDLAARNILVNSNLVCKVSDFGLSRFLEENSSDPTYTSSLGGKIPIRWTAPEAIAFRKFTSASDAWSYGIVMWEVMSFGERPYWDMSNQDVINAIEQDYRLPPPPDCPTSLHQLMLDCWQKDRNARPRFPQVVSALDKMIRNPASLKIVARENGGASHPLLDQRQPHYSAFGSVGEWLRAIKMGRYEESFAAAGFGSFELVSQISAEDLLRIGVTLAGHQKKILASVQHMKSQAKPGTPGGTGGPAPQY

[4] = biological target: T3, DAPK1 (Homo sapiens, UniProt P53355)
T3 construct: purchased ReactionBiology

[5] = VEGFR2, 10 uM, replicate Data 2

Sequence of VEGFR2 (P35968 20-1356): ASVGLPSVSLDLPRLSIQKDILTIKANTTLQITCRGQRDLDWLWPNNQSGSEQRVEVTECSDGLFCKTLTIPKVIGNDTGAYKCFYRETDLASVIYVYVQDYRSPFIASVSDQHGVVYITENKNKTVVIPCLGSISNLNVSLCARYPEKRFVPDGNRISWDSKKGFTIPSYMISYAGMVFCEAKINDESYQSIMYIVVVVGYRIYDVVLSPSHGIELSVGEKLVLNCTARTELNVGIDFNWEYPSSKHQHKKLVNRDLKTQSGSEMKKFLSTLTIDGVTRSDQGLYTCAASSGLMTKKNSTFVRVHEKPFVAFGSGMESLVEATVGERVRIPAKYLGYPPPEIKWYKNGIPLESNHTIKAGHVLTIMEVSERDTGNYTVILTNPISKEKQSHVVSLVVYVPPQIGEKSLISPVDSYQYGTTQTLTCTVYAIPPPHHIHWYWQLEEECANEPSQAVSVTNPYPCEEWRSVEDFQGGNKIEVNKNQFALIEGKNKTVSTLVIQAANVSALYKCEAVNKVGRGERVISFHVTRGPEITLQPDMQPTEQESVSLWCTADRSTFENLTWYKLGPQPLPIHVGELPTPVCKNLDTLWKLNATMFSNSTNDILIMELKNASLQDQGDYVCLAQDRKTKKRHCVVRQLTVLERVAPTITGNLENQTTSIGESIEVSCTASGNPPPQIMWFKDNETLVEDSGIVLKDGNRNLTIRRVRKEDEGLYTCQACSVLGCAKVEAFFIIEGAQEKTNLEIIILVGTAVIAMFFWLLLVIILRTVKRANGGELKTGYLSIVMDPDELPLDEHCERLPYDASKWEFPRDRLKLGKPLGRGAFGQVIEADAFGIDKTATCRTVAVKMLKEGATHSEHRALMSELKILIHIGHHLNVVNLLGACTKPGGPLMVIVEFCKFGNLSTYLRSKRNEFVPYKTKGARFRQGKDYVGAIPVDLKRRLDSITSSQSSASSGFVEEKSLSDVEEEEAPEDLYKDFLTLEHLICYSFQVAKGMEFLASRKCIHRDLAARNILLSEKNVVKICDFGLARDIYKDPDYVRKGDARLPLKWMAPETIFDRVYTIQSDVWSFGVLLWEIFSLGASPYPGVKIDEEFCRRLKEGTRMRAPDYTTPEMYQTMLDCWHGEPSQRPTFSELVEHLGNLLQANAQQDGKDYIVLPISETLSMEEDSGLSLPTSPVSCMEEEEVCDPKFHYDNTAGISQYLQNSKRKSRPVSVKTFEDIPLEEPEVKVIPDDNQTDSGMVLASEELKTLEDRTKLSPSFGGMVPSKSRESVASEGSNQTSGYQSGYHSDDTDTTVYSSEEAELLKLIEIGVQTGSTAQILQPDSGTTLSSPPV
T1 sequence (P48730 whole entry): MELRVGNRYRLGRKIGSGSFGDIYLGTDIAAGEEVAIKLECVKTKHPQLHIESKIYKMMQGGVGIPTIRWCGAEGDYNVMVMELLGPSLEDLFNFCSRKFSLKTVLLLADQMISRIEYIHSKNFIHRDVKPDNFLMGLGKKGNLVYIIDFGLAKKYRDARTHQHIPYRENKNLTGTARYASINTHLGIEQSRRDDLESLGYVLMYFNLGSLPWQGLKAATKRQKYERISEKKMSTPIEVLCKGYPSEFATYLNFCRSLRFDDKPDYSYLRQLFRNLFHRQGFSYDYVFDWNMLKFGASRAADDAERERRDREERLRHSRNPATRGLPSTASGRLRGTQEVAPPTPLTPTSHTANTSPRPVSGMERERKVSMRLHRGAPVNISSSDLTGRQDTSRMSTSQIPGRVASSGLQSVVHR
T3 sequence (P53355 whole entry): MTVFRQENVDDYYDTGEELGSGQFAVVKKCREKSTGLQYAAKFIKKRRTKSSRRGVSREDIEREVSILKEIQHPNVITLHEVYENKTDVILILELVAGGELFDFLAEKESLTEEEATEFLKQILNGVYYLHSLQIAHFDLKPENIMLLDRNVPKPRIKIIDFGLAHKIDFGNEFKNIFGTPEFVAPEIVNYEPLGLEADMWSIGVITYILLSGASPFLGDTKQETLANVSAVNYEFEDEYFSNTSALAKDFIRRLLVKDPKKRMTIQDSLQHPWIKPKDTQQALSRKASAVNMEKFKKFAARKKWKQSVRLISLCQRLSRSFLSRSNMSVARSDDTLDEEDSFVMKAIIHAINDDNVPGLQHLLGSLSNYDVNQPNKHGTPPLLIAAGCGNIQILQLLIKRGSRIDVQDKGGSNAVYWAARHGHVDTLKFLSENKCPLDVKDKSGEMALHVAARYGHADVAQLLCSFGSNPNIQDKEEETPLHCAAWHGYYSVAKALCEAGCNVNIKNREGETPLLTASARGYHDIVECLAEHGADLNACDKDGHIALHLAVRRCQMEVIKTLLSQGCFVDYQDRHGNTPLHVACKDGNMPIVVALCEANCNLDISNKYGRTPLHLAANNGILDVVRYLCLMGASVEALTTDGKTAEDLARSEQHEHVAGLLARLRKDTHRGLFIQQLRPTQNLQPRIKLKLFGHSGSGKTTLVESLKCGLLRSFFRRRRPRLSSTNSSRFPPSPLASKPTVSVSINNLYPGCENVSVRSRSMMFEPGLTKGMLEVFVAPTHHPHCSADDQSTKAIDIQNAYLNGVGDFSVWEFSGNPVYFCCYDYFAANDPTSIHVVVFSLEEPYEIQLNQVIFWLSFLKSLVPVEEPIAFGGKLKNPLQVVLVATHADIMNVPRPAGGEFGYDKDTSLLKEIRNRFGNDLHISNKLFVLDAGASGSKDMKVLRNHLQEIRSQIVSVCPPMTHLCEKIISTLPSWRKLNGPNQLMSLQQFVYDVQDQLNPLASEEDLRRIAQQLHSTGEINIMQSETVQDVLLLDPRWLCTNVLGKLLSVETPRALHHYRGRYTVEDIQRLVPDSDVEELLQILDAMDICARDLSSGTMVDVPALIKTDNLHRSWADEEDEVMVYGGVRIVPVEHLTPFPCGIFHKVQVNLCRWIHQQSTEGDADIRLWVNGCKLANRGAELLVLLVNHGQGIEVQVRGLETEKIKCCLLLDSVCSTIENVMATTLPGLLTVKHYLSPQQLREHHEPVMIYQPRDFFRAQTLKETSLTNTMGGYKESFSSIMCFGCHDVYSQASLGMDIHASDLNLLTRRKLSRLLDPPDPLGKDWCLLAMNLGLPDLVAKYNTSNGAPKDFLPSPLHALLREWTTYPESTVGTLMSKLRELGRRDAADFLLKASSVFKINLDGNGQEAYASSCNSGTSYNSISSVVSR

Row | Compound | % Enzyme Activity (relative to DMSO controls), Average ([2]; VEGFR2, 1 uM) [%] | % Enzyme Activity (relative to DMSO controls), Average ([2]; VEGFR2, 10 uM) [%] | % Enzyme Activity (relative to DMSO controls), Average ([3]; EPHB4, 1 uM, Average) [%] | % Enzyme Activity (relative to DMSO controls), Average ([3]; EPHB4, 10 uM, Average) [%] | % Enzyme Activity (relative to DMSO controls), Data 1 ([3]; EPHB4, 1 uM, replicate Data 1) [%] | % Enzyme Activity (relative to DMSO controls), Data 2 ([3]; EPHB4, 1 uM, replicate Data 2) [%] | % Enzyme Activity (relative to DMSO controls), Data 1 ([3]; EPHB4, 10 uM, replicate Data 1) [%] | % Enzyme Activity (relative to DMSO controls), Data 2 ([3]; EPHB4, 10 uM, replicate Data 2) [%] | also measured
1 | Fc1ccc([C@@H]2CCNC[C@H]2COc2ccc3c(c2)OCO3)cc1 [Paroxetine] | 108.60 | 108.08 | 110.35 | 94.48 |  |  |  |  | % Enzyme Activity (relative to DMSO controls), Average ([1]; CK1d, 10 uM): 105.10%
2 | CN1CCC[C@H]1c1cccnc1 [Nicotine] |  |  |  |  |  |  |  |  | % Enzyme Activity (relative to DMSO controls), Average [3]: 98.32% and 87.80%; % Enzyme Activity (relative to DMSO controls), Data 1 [3]: 99.28% and 89.89%; % Enzyme Activity (relative to DMSO controls), Data 2 [3]: 97.35% and 85.7%; % Enzyme Activity (relative to DMSO controls), Average [4]: 100.32% and 100.82%; % Enzyme Activity (relative to DMSO controls), Data 1 [4]: 100.9% and 106.33%; % Enzyme Activity (relative to DMSO controls), Data 2 [4]: 99.74% and 95.31%
3 | CS(=O)(=O)c1ccc(C2=C(c3ccccc3)C(=O)OC2)cc1 [Rofecoxib] |  |  | 93.84 | 82.31 | 92.91 | 94.77 | 77.99 | 86.63 | % Enzyme Activity (relative to DMSO controls), Average ([4]; DAPK1, 1 uM, Average): 107.94%; % Enzyme Activity (relative to DMSO controls), Data 1 ([4]; DAPK1, 1 uM, replicate Data 1): 111.72%; % Enzyme Activity (relative to DMSO controls), Data 2 ([4]; DAPK1, 1 uM, replicate Data 2): 104.16%; % Enzyme Activity (relative to DMSO controls), Average ([4]; DAPK1, 10 uM, Average): 91.65%; % Enzyme Activity (relative to DMSO controls), Data 1 ([4]; DAPK1, 10 uM, replicate Data 1): 92.47%; % Enzyme Activity (relative to DMSO controls), Data 2 ([4]; DAPK1, 10 uM, replicate Data 2): 90.82%
4 | Penicillin |  |  | 101.77 | 95.95 | 104.24 | 99.3 | 97.18 | 94.72 | % Enzyme Activity (relative to DMSO controls), Average ([1]; CK1d, 1 uM): 98.45%; % Enzyme Activity (relative to DMSO controls), Data 1 ([1]; CK1d, 1 uM): 97.41%; % Enzyme Activity (relative to DMSO controls), Data 2 ([1]; CK1d, 1 uM, replicate Data 2): 99.49%; % Enzyme Activity (relative to DMSO controls), Average ([1]; CK1d, 10 uM): 115.43%; % Enzyme Activity (relative to DMSO controls), Data 1 ([1]; CK1d, 10 uM): 111.85%; % Enzyme Activity (relative to DMSO controls), Data 2 ([1]; CK1d, 10 uM, replicate Data 2): 119.01%
5 | C/C(O)=C(\C#N)C(=O)Nc1ccc(C(F)(F)F)cc1 [Teriflunomide] |  |  | 101.51 | 94.56 | 102.27 | 100.74 | 96.08 | 93.04 | 
6 | CCCCC1C(=O)N(c2ccccc2)N(c2ccccc2)C1=O [Phenylbutazone] | 106.05 | 96.15 | 101.67 | 94.49 | 102.42 | 100.92 | 94.37 | 94.61 | % Enzyme Activity (relative to DMSO controls), Data 1 ([2]; VEGFR2, 1 uM): 102.9%; % Enzyme Activity (relative to DMSO controls), Data 2 ([2]; VEGFR2, 1 uM, replicate Data 2): 109.19%; % Enzyme Activity (relative to DMSO controls), Data 1 ([2]; VEGFR2, 10 uM): 86.33%; % Enzyme Activity (relative to DMSO controls), Data 2 [2, 5]: 105.96%
7 | Cc1ccc(-c2cc(C(F)(F)F)nn2-c2ccc(S(N)(=O)=O)cc2)cc1 [Celecoxib] | 113.33 | 110.02 | 103.20 | 99.23 |  |  |  |  | % Enzyme Activity (relative to DMSO controls), Average ([1]; CK1d, 1 uM): 94.68%
8 | COc1ccc2c3c1O[C@H]1C[C@@H](O)C=C[C@@]31CCN(C)C2 [Galantamine] | 103.82 | 93.22 | 104.29 | 94.53 | 104.73 | 103.85 | 95.37 | 93.68 | % Enzyme Activity (relative to DMSO controls), Data 1 ([2]; VEGFR2, 1 uM): 106.14%; % Enzyme Activity (relative to DMSO controls), Data 2 ([2]; VEGFR2, 1 uM, replicate Data 2): 101.5%; % Enzyme Activity (relative to DMSO controls), Data 1 ([2]; VEGFR2, 10 uM): 95.78%; % Enzyme Activity (relative to DMSO controls), Data 2 [2, 5]: 90.65%
9 | C[C@H]1O[C@@H](O[C@H]2[C@@H](O)C[C@H](O[C@H]3[C@@H](O)C[C@H](O[C@H]4CC[C@@]5(C)[C@H](CC[C@@H]6[C@@H]5C[C@@H](O)[C@]5(C)[C@@H](C7=CC(=O)OC7)CC[C@]65O)C4)O[C@@H]3C)O[C@@H]2C)C[C@H](O)[C@@H]1O [Digoxin] |  |  | 101.58 | 92.84 | 99.88 | 103.27 | 91.71 | 93.96 | % Enzyme Activity (relative to DMSO controls), Average ([1]; CK1d, 1 uM): 103.51%; % Enzyme Activity (relative to DMSO controls), Data 1 ([1]; CK1d, 1 uM): 105.62%; % Enzyme Activity (relative to DMSO controls), Data 2 ([1]; CK1d, 1 uM, replicate Data 2): 101.39%; % Enzyme Activity (relative to DMSO controls), Average ([1]; CK1d, 10 uM): 100.70%; % Enzyme Activity (relative to DMSO controls), Data 1 ([1]; CK1d, 10 uM): 102.31%; % Enzyme Activity (relative to DMSO controls), Data 2 ([1]; CK1d, 10 uM, replicate Data 2): 99.09%
10 | Nc1c2c(nc3ccccc13)CCCC2 [Tacrine] |  |  |  |  |  |  |  |  | % Enzyme Activity (relative to DMSO controls), Data 2 [1]: 118.35%; % Enzyme Activity (relative to DMSO controls), Data 2 [2]: 94.26% and 99.54%; % Enzyme Activity (relative to DMSO controls), Data 2 [3]: 73.14% and 73.39%
11 | O=C1c2cccc3c2[C@H](CCC3)CN1[C@@H]1CN2CCC1CC2 [Palonosetron] |  |  | 97.11 | 88.19 | 97.96 | 96.26 | 86.49 | 89.88 | 
